Structures are written as SMILES. Like-named read-outs stand apart in the source and are kept apart here.

The assay concerns cultured human mast cells (CHMC), IgE-induced degranulation. As to the kind of experiment: CHMC low cell density IgE activation: tryptase assay. Format: cell-based. The method, then:
Inhibition of degranulation was measured at both low and high cell density by quantifying the release of the granule specific factors tryptase, histamine and hexosaminidase. Inhibition of release and/or synthesis of lipid mediators was assessed by measuring the release of leukotriene LTC4 and inhibition of release and/or synthesis of cytokines was monitored by quantifying TNF-α, IL-6 and IL-13. Tryptase and hexosaminidase were quantified using fluorogenic substrates as described in their respective examples. […] The protocols of the various assays are provided below.
A second phase is performed to convert the expanded CD34-negative progenitor cells into differentiated mucosal mast cells. These mucosal cultured human mast cells (“CHMC”) are derived from CD34+ cells isolated from umbilical cord blood and treated to form a proliferated population of CD34-negative progenitor cells, as described above. […] Also, the cytokine composition of the medium was modified such that it contained SCF (200 ng/mL) and recombinant human IL-6 (200 ng/mL; Peprotech, Catalog No. 200-06 reconstituted to 100 ug/mL in sterile 10 mM acetic acid) (“CM/SCF/IL-6 medium”).
Pellet CHMC cells (980 rpm, 10 min) and resuspend in pre-warmed MT. Add 65 ul of cells to each 96-well plate. Depending on the degranulation activity for each particular CHMC donor, load 1000-1500 cells/well. Mix four times followed by a 1 hr incubation at 37° C. […] Stimulate cells by adding 25 ul of 6× anti-IgE solution to the appropriate plates. Add 25 ul MT to un-stimulated control wells. Mix twice following addition of the anti-IgE. Incubate at 37° C. for 30 minutes. […] Spin plates at 1000 rpm for 10 min to pellet cells. Transfer 25 ul of supernatant to a 96-well black bottom plate and add 100 ul of freshly diluted tryptase substrate solution to each well. Incubate plates at room temperature for 30 min.
In Table 1, all reported values are IC50s (in μM). […] In Table 1, all reported values are IC50s (in μM).

The mark [1] stands for this setting: low cell density CHMC, 8pt, read-out: LD Tryptase, CHMC, IgE, 8pt.
Setting [2] is: low cell density CHMC, 3pt, read-out: LD Tryptase, CHMC, IgE, 3pt.
Where [3] appears, read: Homo sapiens, Mast cell, low cell density CHMC, 8pt, read-out: LD Tryptase, CHMC, IgE, 8pt.
[4] abbreviates: CHMC low cell density, 3pt, read-out: LD Tryptase, CHMC, IgE, 3pt.
[5] abbreviates: CHMC low cell density, 8pt, read-out: LD Tryptase, CHMC, IgE, 8pt.

As for `CC1C(=O)Nc2cc(Nc3nc(Nc4cccc(O)c4)ncc3F)ccc2S1(=O)=O` (racemic) [Compound 284, racemic-5-Fluoro-N2-[3-hydoxyphenyl]-N4-(2-methyl-1,1,3-trioxo-2H,4H-benzo[1,4]thiazin-6-yl)-2,4-pyrimidinediamine], under setting [1], the IC50 was below 10 µM.

With `CNC(=O)COc1cccc(Nc2ncc(F)c(Nc3ccc4c(c3)NC(=O)C(C)S4(=O)=O)n2)c1` (racemic) [Compound 285, racemic-5-Fluoro-N2-[3-(N-methylamino)carbonylmethyleneoxyphenyl]-N4-(2-methyl-1,1,3-trioxo-2H,4H-benzo[1,4]thiazin-6-yl)-2,4-pyrimidinediamine], the IC50 under setting [1] is below 10 µM.

`CC1Sc2ccc(Nc3nc(Cl)ncc3F)cc2NC1=O` (racemic) [Compound 314, racemic-N2-Chloro-5-fluoro-N4-(2-methyl-3-oxo-2H,4H-benzo[1,4]thiazin-6-yl)-4-pyrimidinea mine]: under setting [2], the IC50 is below 10 µM.

Turning to `CC1C(=O)Nc2cc(Nc3nc(Cl)ncc3F)ccc2S1(=O)=O` (racemic) [Compound 317, racemic-N2-Chloro-5-fluoro-N4-(2-methyl-1,1,3-trioxo-2H,4H-benzo[1,4]thiazin-6-yl)-4-pyrimidinea mine], the IC50 under setting [2] was above 10 µM.

Regarding `C[C@H]1Oc2ccc(Nc3nc(Nc4cc5c6c(c4)c(CCO)cn6CCO5)ncc3F)cc2NC1=O` [Compound 205, (R)-5-Fluoro-N2-[6-(2-hydroxyethyl)-2,3-dihydropyrrolo[1,2,3-d,e]benzoxazin-8-yl]-N4-(2-methyl-3-oxo-2H,4H-benz[1,4]oxazin-6-yl)-2,4-pyrimidinediamine], the IC50 under setting [1] is below 10 µM.

Turning to `CC1(C)COc2ccc(Nc3nc(Nc4cc5c6c(c4)c(CCO)cn6CCO5)ncc3F)cc2N1` [Compound 206, N4-(3,4-Dihydro-3,3-dimethyl-2H,4H-benz[1,4]oxazin-6-yl)-5-fluoro-N2-[6-(2-hydroxyethyl)-2,3-dihydropyrrolo[1,2,3-d,e]benzoxazin-8-yl]-2,4-pyrimidinediamine], under setting [1], the IC50 was below 10 µM.

`O=C1COc2cc(Nc3nc(Nc4ccc(-c5ncco5)cc4)ncc3F)ccc2N1` [Compound 241]: the IC50 under setting [3] is below 10 µM.

For `CNC(=O)COc1cccc(Nc2ncc(F)c(Nc3ccc4c(c3)NC(=O)C(C)(C)S4(=O)=O)n2)c1` [Compound 275, N4-(2,2-Dimethyl-1,1,3-trioxo-4H-benzo[1,4]thiazin-6-yl)-5-fluoro-N2-[3-(N-methylamino)carbonylmethyleneoxyphenyl]-2,4-pyrimidinediamine], the IC50 under setting [1] was below 10 µM.

With `COc1ccc(Nc2ncc(F)c(Nc3ccc4c(c3)NC(=O)C(C)(C)S4(=O)=O)n2)cc1Cl` [Compound 276], under setting [1], the IC50 was below 10 µM.

Turning to `CNC(=O)COc1cccc(Nc2ncc(F)c(Nc3ccc4c(c3)NC(=O)C(C)S4)n2)c1` (stereo not shown) [Compound 279, 5-Fluoro-N2-[3-(N-methylamino)carbonylmethyleneoxyphenyl]-N4-(2-methyl-3-oxo-2H,4H-benzo[1,4]thiazin-6-yl)-2,4-pyrimidinediamine], under setting [1], the IC50 is below 10 µM.

For `CC1(C)C(=O)Nc2cc(Nc3nc(Nc4cccc(O)c4)ncc3F)ccc2S1(=O)=O` [Compound 283, racemic-N4-(2,2-Dimethyl-1,1,3-trioxo-4H-benzo[1,4]thiazin-6-yl)-5-fluoro-N2-[3-hydoxyphenyl]-2,4-pyrimidinediamine], under setting [1], the IC50 is below 10 µM.

Consider `COc1ccc(Nc2ncc(F)c(Nc3ccc4c(c3)NC(=O)C(C)(C)S4)n2)cc1Cl` [Compound 289], for which, under setting [1], the IC50 was below 10 µM.

For the molecule `CNC(=O)COc1cccc(Nc2ncc(F)c(Nc3ccc4c(c3)NC(=O)C(C)(C)S4)n2)c1` [Compound 294, N4-(2,2-Dimethyl-3-oxo-4H-benzo[1,4]thiazin-6-yl)-5-fluoro-N2-[3-(N-methylamino)carbonylmethyleneoxyphenyl]-2,4-pyrimidinediamine], the IC50 by setting is: under setting [2], below 10 µM; under setting [1], below 10 µM.

With `COc1ccc(Nc2ncc(F)c(Nc3ccc4c(c3)NC(=O)C(C)(C)S4)n2)cc1F` [Compound 299], the IC50 under setting [2] is below 10 µM and the IC50 under setting [1] is below 10 µM.

In the case of `CNC(=O)COc1cccc(Nc2ncc(F)c(Nc3ccc4c(c3)NC(=O)CS4(=O)=O)n2)c1` [Compound 305, 5-Fluoro-N2-[3-(N-methylamino)carbonylmethyleneoxyphenyl]-N4-(1,1,3-trioxo-2H,4H-benzo[1,4]thiazin-6-yl)-2,4-pyrimidinediamine], the IC50 under setting [1] is below 10 µM.

With `COc1cc(Nc2ncc(F)c(Nc3ccc4c(c3)NC(=O)CS4(=O)=O)n2)cc(OC)c1OC` [Compound 306, 5-Fluoro-N2-(3,4,5-triimethoxylphenyl)-N4-(1,1,3-trioxo-2H,4H-benzo[1,4]thiazin-6-yl)-2,4-pyrimidinediamine], the IC50 under setting [1] is below 10 µM.

As to `O=C1CSc2ccc(Nc3nc(Cl)ncc3F)cc2N1` [Compound 313, N2-Chloro-5-fluoro-N4-(3-oxo-2H,4H-benzo[1,4]thiazin-6-yl)-4-pyrimidinea mine], the IC50 under setting [2] is below 10 µM.

For the molecule `O=C1CS(=O)(=O)c2ccc(Nc3nc(Cl)ncc3F)cc2N1` [Compound 315, N2-Chloro-5-fluoro-N4-(1,1,3-trioxo-2H,4H-benzo[1,4]thiazin-6-yl)-4-pyrimidinea mine], the IC50 under setting [2] is above 10 µM.

`CC1(C)Sc2ccc(Nc3nc(Cl)ncc3F)cc2NC1=O` [Compound 316, N2-Chloro-N4-(2,2,-dimethyl-3-oxo-4H-benzo[1,4]thiazin-6-yl)-5-fluoro-4-pyrimidinea mine]: the IC50 under setting [2] was below 10 µM.

As for `CC1(C)C(=O)Nc2cc(Nc3nc(Cl)ncc3F)ccc2S1(=O)=O` [Compound 318, N2-Chloro-N4-(2,2-dimethyl-1,1,3-trioxo-4H-benzo[1,4]thiazin-6-yl)-5-fluoro-4-pyrimidinea mine], under setting [2], the IC50 was below 10 µM.

As for `CC1(C)COc2ccc(Nc3nc(Cl)ncc3F)cc2N1` [Compound 320, N2-Chloro-N4-(3,3-dimethyl-1,4-benzoxazin-6-yl)-5-fluoro-pyrimidinea mine], the IC50 under setting [2] was below 10 µM.

With `OC=C1C=C(Nc2ncc(F)c(Nc3ccc4c(c3)OCCO4)n2)CC(=CO)C1` [Compound 342], the IC50 under setting [3] is below 10 µM.

As to `CNC(=O)n1ccc2ccc(Nc3ncc(F)c(Nc4ccc5c(c4)NC(=O)C(C)(C)O5)n3)cc21` [Compound 347, N4-(2,2-Dimethyl-3-oxo-4H-benz[1,4]oxazin-6-yl)-N2-[1-(N-methylaminocarbony)lindol-6-yl)-5-fluoro-2,4-pyrimidinediamine], the IC50 under setting [2] was below 10 µM.

Regarding `Cc1cc(C)cc(Nc2ncc(F)c(Nc3ccc4c(c3)OC(F)(F)C(F)(F)O4)n2)c1` [Compound 362, N2-(3,5-Dimethyphenyl)-5-fluoro-N4-[3,4-(tetrafluoroethylenedioxy)phenyl]-2,4-pyrimidinediamine], the IC50 is below 10 µM under setting [4] and above 10 µM under setting [5].

As to `Cc1cc(Nc2ncc(F)c(Nc3ccc4c(c3)OC(F)(F)C(F)(F)O4)n2)cc(C(F)(F)F)c1` [Compound 366, 5-Fluoro-N2-(3-methyl-5-trifluoromethyl)-N4-[3,4-(tetrafluoroethylenedioxy)phenyl]-2,4-pyrimidinediamine], the IC50 under setting [4] was below 10 µM.

For `CN(c1ccc2c(c1)OCCO2)c1nc(NN)ncc1F` [Compound 533, N4-(3,4-Ethylenedioxyphenyl)-5-fluoro-N4-methyl-2-hydrazine-4-pyrimidinea mine], the IC50 under setting [4] was above 10 µM.

In the case of `CNC(=O)COc1c(C)cc(Nc2ncc(F)c(Nc3ccc4c(c3)OCCO4)n2)cc1C` [Compound 572, N2-[3,5-dimethyl-4-(N-methylamino)carbonylmethyleneoxyphenyl]-N4-(3,4-ethylenedioxyphenyl)-5-fluoro-2,4-pyrimidinediamine], the IC50 runs as follows: under setting [4], below 10 µM; under setting [5], below 10 µM.

In the case of `CNC(=O)COc1c(C)cc(Nc2ncc(F)c(Nc3ccc4c(c3)NC(=O)C(C)(C)O4)n2)cc1C` [Compound 574, N2-[3,5-dimethyl-4-(N-methylamino)carbonylmethyleneoxyphenyl]-N4-(2,2-dimethyl-3-oxo-4H-benz[1,4]oxazin-6-yl)-5-fluoro-2,4-pyrimidinediamine], the IC50 under setting [4] was below 10 µM and the IC50 under setting [5] is below 10 µM.

With `CNC(=O)Cn1ccc2cc(Nc3ncc(F)c(Nc4ccc5c(c4)OCCO5)n3)ccc21` [Compound 655, N4-(3,4-Ethylenedioxyphenyl)-5-fluoro-N2-[1-(N-methylamino)carbonylmethyleneindol-5-yl]-2,4-pyrimidinediamine], the IC50 under setting [5] was below 10 µM.

The values above are taken from patent US7560466B2, “Methods of treating or preventing autoimmune diseases with 2,4-pyrimidinediamine compounds” (Rigel Pharmaceuticals, Inc., priority 2003, dated 2009).
